Tested on: MV-4-11 cells
Assay: Gene expression microarray analysis (Affymetrix PrimeView) and GSEA
Type: cell-based, human
Set-up: RFU PODN (11730768_x_at) / Fold change /veh PODN (11730768_x_at) / RFU LINC00158 (11744669_a_at) / Fold change /veh LINC00158 (11744669_a_at) / RFU DUSP10 (11751237_a_at) / Fold change /veh DUSP10 (11751237_a_at) / RFU ID3 (11757404_x_at) / Fold change /veh ID3 (11757404_x_at) / RFU PLEKHG5 (11737974_s_at) / Fold change /veh PLEKHG5 (11737974_s_at) / RFU LRRC4B (11730491_at) / Fold change /veh LRRC4B (11730491_at) / RFU GIMAP4 (11747438_a_at) / Fold change /veh GIMAP4 (11747438_a_at) / RFU KRT8 (11758183_x_at) / Fold change /veh KRT8 (11758183_x_at) / RFU CNN1 (11734310_a_at) / Fold change /veh CNN1 (11734310_a_at) / RFU VPS37D (11726825_at) / Fold change /veh VPS37D (11726825_at) / RFU C10orf10 (11716522_x_at) / Fold change /veh C10orf10 (11716522_x_at) / RFU KIR2DL2 /// KIR2DL4 /// KIR2DL5A /// KIR2DL5B /// KIR2DS1 /// KIR2DS2 /// KIR2DS3 /// KIR2DS4 /// KIR3DL3 /// KIR3DL3 /// KIR3DS1 (11738374_at) / Fold change /veh KIR2DL2 /// KIR2DL4 /// KIR2DL5A /// KIR2DL5B /// KIR2DS1 /// KIR2DS2 /// KIR2DS3 /// KIR2DS4 /// KIR3DL3 /// KIR3DL3 /// KIR3DS1 (11738374_at) / RFU C1QL1 (11718748_at) / Fold change /veh C1QL1 (11718748_at) / RFU TMPRSS4 (11747572_a_at) / Fold change /veh TMPRSS4 (11747572_a_at) / RFU HAMP (11756126_x_at) / Fold change /veh HAMP (11756126_x_at) / RFU RNFT2 (11725882_a_at) / Fold change /veh RNFT2 (11725882_a_at) / RFU NR4A2 (11747474_a_at) / Fold change /veh NR4A2 (11747474_a_at) / RFU ABCC12 (11746883_a_at) / Fold change /veh ABCC12 (11746883_a_at) / RFU TMEM136 (11760407_x_at) / Fold change /veh TMEM136 (11760407_x_at) / RFU CLDN22 /// WWC2 (11732394_at) / Fold change /veh CLDN22 /// WWC2 (11732394_at) / RFU HLA-DPB1 (11760878_x_at) / Fold change /veh HLA-DPB1 (11760878_x_at) / RFU SPINT1 (11716480_a_at) / Fold change /veh SPINT1 (11716480_a_at) / RFU GAP43 (11754022_s_at) / Fold change /veh GAP43 (11754022_s_at) / RFU A4GNT (11735810_at) / Fold change /veh A4GNT (11735810_at) / RFU PRB3 (11715151_x_at) / Fold change /veh PRB3 (11715151_x_at) / RFU TUBB4B (11761932_at) / Fold change /veh TUBB4B (11761932_at) / RFU CAPN14 (11732068_a_at) / Fold change /veh CAPN14 (11732068_a_at) / RFU TMCC2 (11721928_a_at) / Fold change /veh TMCC2 (11721928_a_at) / RFU IRGQ (11745062_a_at) / Fold change /veh IRGQ (11745062_a_at) / RFU FAM174B (11720279_a_at) / Fold change /veh FAM174B (11720279_a_at) / RFU TMPRSS4 (11748680_a_at) / Fold change /veh TMPRSS4 (11748680_a_at) / RFU FAM212B (11763350_a_at) / Fold change /veh FAM212B (11763350_a_at) / RFU PLEKHG5 (11743358_a_at) / Fold change /veh PLEKHG5 (11743358_a_at) / RFU ZSCAN30 (11745921_a_at) / Fold change /veh ZSCAN30 (11745921_a_at) / RFU CMKLR1 (11741424_a_at) / Fold change /veh CMKLR1 (11741424_a_at) / RFU LOC101060620 /// MAPK8IP1 (11723275_at) / Fold change /veh LOC101060620 /// MAPK8IP1 (11723275_at) / RFU SPTSSB (11747773_x_at) / Fold change /veh SPTSSB (11747773_x_at) / RFU PRSS12 (11739890_at) / Fold change /veh PRSS12 (11739890_at) / RFU BIN1 (11741810_x_at) / Fold change /veh BIN1 (11741810_x_at) / RFU WNT11 (11732464_a_at) / Fold change /veh WNT11 (11732464_a_at) / RFU C10orf10 (11716521_a_at) / Fold change /veh C10orf10 (11716521_a_at) / RFU C5orf56 (11738089_at) / Fold change /veh C5orf56 (11738089_at) / RFU CYB561 (11721691_x_at) / Fold change /veh CYB561 (11721691_x_at) / RFU ANKRD19P (11752326_a_at) / Fold change /veh ANKRD19P (11752326_a_at) / RFU OR2T12 /// OR2T33 /// OR2T8 (11738714_s_at) / Fold change /veh OR2T12 /// OR2T33 /// OR2T8 (11738714_s_at) / RFU VCAN (11748164_a_at) / Fold change /veh VCAN (11748164_a_at) / RFU JSRP1 (11732532_at) / Fold change /veh JSRP1 (11732532_at) / RFU KRTAP10-11 (11738290_x_at) / Fold change /veh KRTAP10-11 (11738290_x_at) / RFU MYO3A (11730013_a_at) / Fold change /veh MYO3A (11730013_a_at) / RFU EBF3 (11725865_a_at) / Fold change /veh EBF3 (11725865_a_at) / RFU CAMK2N1 (11719241_x_at) / Fold change /veh CAMK2N1 (11719241_x_at) / RFU C5orf56 (11738088_a_at) / Fold change /veh C5orf56 (11738088_a_at) / RFU OLFML3 (11715873_a_at) / Fold change /veh OLFML3 (11715873_a_at) / RFU LOC100653217 /// NTM (11731650_a_at) / Fold change /veh LOC100653217 /// NTM (11731650_a_at) / RFU MAPK11 (11762145_a_at) / Fold change /veh MAPK11 (11762145_a_at) / RFU FIZ1 (11724087_x_at) / Fold change /veh FIZ1 (11724087_x_at) / RFU OASL (11726364_x_at) / Fold change /veh OASL (11726364_x_at) / RFU SOX15 (11748057_x_at) / Fold change /veh SOX15 (11748057_x_at) / RFU CD79A (11719716_a_at) / Fold change /veh CD79A (11719716_a_at) / RFU HIST1H1D (11736915_at) / Fold change /veh HIST1H1D (11736915_at) / RFU CASKIN2 (11723855_a_at) / Fold change /veh CASKIN2 (11723855_a_at) / RFU LOC730098 (11760151_x_at) / Fold change /veh LOC730098 (11760151_x_at) / RFU OR4N2 (11742367_at) / Fold change /veh OR4N2 (11742367_at) / RFU PRRT2 (11749266_a_at) / Fold change /veh PRRT2 (11749266_a_at) / RFU SNX32 (11753110_a_at) / Fold change /veh SNX32 (11753110_a_at) / RFU CDHR5 (11726645_a_at) / Fold change /veh CDHR5 (11726645_a_at) / RFU RCAN1 (11760418_a_at) / Fold change /veh RCAN1 (11760418_a_at) / RFU FAM167A (11723789_a_at) / Fold change /veh FAM167A (11723789_a_at) / RFU FAM26E (11764081_at) / Fold change /veh FAM26E (11764081_at) / RFU ISYNA1 (11749810_s_at) / Fold change /veh ISYNA1 (11749810_s_at) / RFU ACY1 (11761880_at) / Fold change /veh ACY1 (11761880_at) / RFU 11764098_at / Fold change /veh 11764098_at / RFU SAMD14 (11745864_x_at) / Fold change /veh SAMD14 (11745864_x_at) / RFU NPB (11741838_a_at) / Fold change /veh NPB (11741838_a_at) / RFU TMPRSS6 (11731388_a_at) / Fold change /veh TMPRSS6 (11731388_a_at) / RFU KRTAP10-2 (11738614_at) / Fold change /veh KRTAP10-2 (11738614_at) / RFU ARHGAP8 /// PRR5-ARHGAP8 (11727945_x_at) / Fold change /veh ARHGAP8 /// PRR5-ARHGAP8 (11727945_x_at) / RFU KRTAP5-7 /// NADSYN1 (11734609_at) / Fold change /veh KRTAP5-7 /// NADSYN1 (11734609_at) / RFU RASL12 (11751679_a_at) / Fold change /veh RASL12 (11751679_a_at) / RFU CDKN2B (11736163_a_at) / Fold change /veh CDKN2B (11736163_a_at) / RFU PRF1 (11729649_at) / Fold change /veh PRF1 (11729649_at) / RFU, ZNF638 /// ZNF638-IT1 / Fold change vs veh, ZNF638 /// ZNF638-IT1 / RFU, PANK3 / Fold change vs veh, PANK3 / RFU, SH3YL1 / Fold change vs veh, SH3YL1 / RFU, ZEB2 / Fold change vs veh, ZEB2 / RFU, NRIP1 / Fold change vs veh, NRIP1 / RFU, PTTG1IP / Fold change vs veh, PTTG1IP / RFU, CAPN2 / Fold change vs veh, CAPN2 / RFU, MED14 / Fold change vs veh, MED14 / RFU, SNORA58 / Fold change vs veh, SNORA58 / RFU, C1orf63 / Fold change vs veh, C1orf63 / RFU, LRRFIP1 / Fold change vs veh, LRRFIP1 / RFU, NDUFAF7 / Fold change vs veh, NDUFAF7 / RFU, SLC12A2 / Fold change vs veh, SLC12A2 / RFU, IBTK / Fold change vs veh, IBTK / RFU, ESF1 / Fold change vs veh, ESF1 / Fold change vs veh, TMEM50B / RFU, TAOK1 / Fold change vs veh, TAOK1 / RFU, ACBD3 / Fold change vs veh, ACBD3 / RFU, TMA16 / Fold change vs veh, TMA16 / RFU, RWDD3 / Fold change vs veh, RWDD3 / RFU, BCAT1 / Fold change vs veh, BCAT1 / RFU, EDEM3 / Fold change vs veh, EDEM3 / RFU, TMEM33 / Fold change vs veh, TMEM33 / RFU, WDR75 / Fold change vs veh, WDR75 / RFU, AHCTF1 / Fold change vs veh, AHCTF1 / RFU, TFRC / Fold change vs veh, TFRC / RFU, ZDHHC17 / Fold change vs veh, ZDHHC17 / RFU, NOM1 / Fold change vs veh, NOM1 / RFU, ARL8B / Fold change vs veh, ARL8B / RFU, ZBTB11 / Fold change vs veh, ZBTB11 / RFU, TAMM41 / Fold change vs veh, TAMM41 / RFU, KIAA1704 /// LOC100996395 / Fold change vs veh, KIAA1704 /// LOC100996395 / RFU, ING1 / Fold change vs veh, ING1 / RFU, TRMT61B / Fold change vs veh, TRMT61B / RFU, FUBP3 / Fold change vs veh, FUBP3 / RFU, TP53 / Fold change vs veh, TP53 / RFU, TNKS2 / Fold change vs veh, TNKS2 / RFU, ZFP14 / Fold change vs veh, ZFP14 / RFU, ACTR2 / Fold change vs veh, ACTR2 / RFU, PPP3R1 / Fold change vs veh, PPP3R1 / RFU, PIK3R1 / Fold change vs veh, PIK3R1 / RFU, HNRNPA1 / Fold change vs veh, HNRNPA1 / RFU, RNF170 / Fold change vs veh, RNF170 / RFU, ZNF28 / Fold change vs veh, ZNF28 / RFU, RNGTT / Fold change vs veh, RNGTT / RFU, OGT / Fold change vs veh, OGT / RFU, BRD1 / Fold change vs veh, BRD1 / RFU, MARS / Fold change vs veh, MARS / RFU, ZNF655 / Fold change vs veh, ZNF655 / RFU, FAHD1 / Fold change vs veh, FAHD1 / RFU, BDP1 / Fold change vs veh, BDP1 / RFU, LRRCC1 / Fold change vs veh, LRRCC1 / RFU, ARID1A / Fold change vs veh, ARID1A / RFU, ZNF146 / Fold change vs veh, ZNF146 / RFU, ZNF330 / Fold change vs veh, ZNF330 / RFU, GPN3 / Fold change vs veh, GPN3 / RFU, C9orf123 / Fold change vs veh, C9orf123 / RFU, N4BP2L2 / Fold change vs veh, N4BP2L2 / RFU, ARFIP1 / Fold change vs veh, ARFIP1 / RFU, FAM179B / Fold change vs veh, FAM179B / RFU, BCL10 / Fold change vs veh, BCL10 / RFU, UHRF1BP1L / Fold change vs veh, UHRF1BP1L / RFU, BET1 / Fold change vs veh, BET1 / RFU, CNOT2 / Fold change vs veh, CNOT2 / RFU, ZNF268 / Fold change vs veh, ZNF268 / Fold change vs veh, ZNF507 / RFU, DGCR2 / Fold change vs veh, DGCR2 / RFU, WDSUB1 / Fold change vs veh, WDSUB1 / Fold change vs veh, HSP90B1 /// MIR3652 / RFU, ADSS / Fold change vs veh, ADSS / RFU, GK / Fold change vs veh, GK / RFU, ZNF148 / Fold change vs veh, ZNF148 / RFU, TAF9 / Fold change vs veh, TAF9 / RFU, SLC1A5 / Fold change vs veh, SLC1A5 / RFU, SLMO2 / Fold change vs veh, SLMO2 / RFU, ABCC4 / Fold change vs veh, ABCC4 / RFU, LOC101060439 /// RAP1B / Fold change vs veh, LOC101060439 /// RAP1B / RFU, RFX7 / Fold change vs veh, RFX7 / RFU, GTPBP10 / Fold change vs veh, GTPBP10 / RFU, CNEP1R1 / Fold change vs veh, CNEP1R1 / RFU, BIVM-ERCC5 /// ERCC5 / Fold change vs veh, BIVM-ERCC5 /// ERCC5 / RFU, ILF3 / Fold change vs veh, ILF3 / RFU 11762660_at / Fold change /veh 11762660_at / RFU VCAN (11757783_s_at) / Fold change /veh VCAN (11757783_s_at) / RFU DDX43 (11728927_at) / Fold change /veh DDX43 (11728927_at) / RFU KRT8 (11758188_x_at) / Fold change /veh KRT8 (11758188_x_at) / RFU NKD1 (11759106_at) / Fold change /veh NKD1 (11759106_at) / RFU SRD5A1 (11742802_a_at) / Fold change /veh SRD5A1 (11742802_a_at) / RFU TPSAB1 /// TPSB2 (11721975_s_at) / Fold change /veh TPSAB1 /// TPSB2 (11721975_s_at) / RFU GSTM3 (11746129_a_at) / Fold change /veh GSTM3 (11746129_a_at) / RFU IL23R (11737362_x_at) / Fold change /veh IL23R (11737362_x_at) / RFU TMEM51 (11727254_a_at) / Fold change /veh TMEM51 (11727254_a_at) / RFU PIWIL2 (11732686_x_at) / Fold change /veh PIWIL2 (11732686_x_at) / RFU ORM1 (11744905_x_at) / Fold change /veh ORM1 (11744905_x_at) / RFU CCDC152 (11743942_at) / Fold change /veh CCDC152 (11743942_at) / RFU ECM1 (11717891_a_at) / Fold change /veh ECM1 (11717891_a_at) / RFU IL23R (11748794_a_at) / Fold change /veh IL23R (11748794_a_at) / RFU TNFAIP8L3 (11732012_x_at) / Fold change /veh TNFAIP8L3 (11732012_x_at) / RFU MBOAT4 (11741988_at) / Fold change /veh MBOAT4 (11741988_at) / RFU 11764193_at / Fold change /veh 11764193_at / RFU TMEM53 (11763286_at) / Fold change /veh TMEM53 (11763286_at) / RFU MAGEB2 (11727129_at) / Fold change /veh MAGEB2 (11727129_at) / RFU TMEM200A (11744735_a_at) / Fold change /veh TMEM200A (11744735_a_at) / RFU CCDC152 (11751479_a_at) / Fold change /veh CCDC152 (11751479_a_at) / RFU FAM211A (11726209_a_at) / Fold change /veh FAM211A (11726209_a_at) / RFU RGS16 (11746705_a_at) / Fold change /veh RGS16 (11746705_a_at) / RFU VCAN (11755009_s_at) / Fold change /veh VCAN (11755009_s_at) / RFU RHOB (11743442_s_at) / Fold change /veh RHOB (11743442_s_at) / RFU RGS16 (11720943_a_at) / Fold change /veh RGS16 (11720943_a_at) / RFU RGS16 (11720944_at) / Fold change /veh RGS16 (11720944_at) / RFU, VPS4B / Fold change vs veh, VPS4B / RFU, CREB1 / Fold change vs veh, CREB1 / RFU, DNAJC13 / Fold change vs veh, DNAJC13 / RFU, GNAQ / Fold change vs veh, GNAQ / RFU, CDK5R1 / Fold change vs veh, CDK5R1 / RFU, ZRANB3 / Fold change vs veh, ZRANB3 / RFU, CUL4A / Fold change vs veh, CUL4A / RFU, CCNY / Fold change vs veh, CCNY / RFU, UFL1 / Fold change vs veh, UFL1 / RFU, COG3 / Fold change vs veh, COG3 / RFU, DIAPH2 / Fold change vs veh, DIAPH2 / RFU, SKA2 / Fold change vs veh, SKA2 / RFU, AFF3 / Fold change vs veh, AFF3 / RFU, LMF1 / Fold change vs veh, LMF1 / RFU, IPO11 / Fold change vs veh, IPO11 / RFU, DFFB / Fold change vs veh, DFFB / RFU, FOXP1 / Fold change vs veh, FOXP1 / RFU, CARD8 / Fold change vs veh, CARD8 / RFU, STRN3 / Fold change vs veh, STRN3 / RFU, ADK / Fold change vs veh, ADK / RFU, RASSF2 / Fold change vs veh, RASSF2 / RFU, WIPF1 / Fold change vs veh, WIPF1 / RFU, LARP1B / Fold change vs veh, LARP1B / RFU, RASA1 / Fold change vs veh, RASA1 / RFU, RB1 / Fold change vs veh, RB1 / RFU, PPFIA1 / Fold change vs veh, PPFIA1 / RFU, MAT2A / Fold change vs veh, MAT2A / RFU, CCT5 / Fold change vs veh, CCT5 / RFU, WDR92 / Fold change vs veh, WDR92 / RFU, CUX1 / Fold change vs veh, CUX1 / RFU, TTC7A / Fold change vs veh, TTC7A / RFU, TMEM135 / Fold change vs veh, TMEM135 / RFU, DEPTOR / Fold change vs veh, DEPTOR / RFU, CPM / Fold change vs veh, CPM / RFU, DNAJB6 / Fold change vs veh, DNAJB6 / RFU, CACNA2D3 / Fold change vs veh, CACNA2D3 / RFU, DTX4 / Fold change vs veh, DTX4 / RFU, TFCP2 / Fold change vs veh, TFCP2 / RFU, GMCL1 /// GMCL1P1 / Fold change vs veh, GMCL1 /// GMCL1P1 / RFU, AEBP2 / Fold change vs veh, AEBP2 / RFU, SNHG1 /// SNORD22 /// SNORD25 /// SNORD26 /// SNORD27 /// SNORD28 /// SNORD29 /// SNORD31 / Fold change vs veh, SNHG1 /// SNORD22 /// SNORD25 /// SNORD26 /// SNORD27 /// SNORD28 /// SNORD29 /// SNORD31 / Fold change (Aza/veh), C12orf56 (ProbeSet 11735607_a_at) / Fold change (ACY-1035/veh), C12orf56 (ProbeSet 11735607_a_at) / Fold change (Aza/veh), FGFR1OP (ProbeSet 11751329_s_at) / Fold change (ACY-1035/veh), FGFR1OP (ProbeSet 11751329_s_at) / Fold change (Aza/veh), VPS36 (ProbeSet 11739960_a_at) / Fold change (ACY-1035/veh), VPS36 (ProbeSet 11739960_a_at) / RFU SYPL1 (11715823_x_at) / Fold change /veh SYPL1 (11715823_x_at) / RFU IGFBP7 (11715501_s_at) / Fold change /veh IGFBP7 (11715501_s_at) / RFU REEP3 (11722064_at) / Fold change /veh REEP3 (11722064_at) / RFU IGLL1 (11728026_x_at) / Fold change /veh IGLL1 (11728026_x_at): dose or concentration left out as unconfirmed
Conditions: MV-4-11 cells, 48 hours

## Nc1ncn([C@@H]2O[C@H](CO)[C@@H](O)[C@H]2O)c(=O)n1 [azacitidine]
  RFU TPSAB1 /// TPSB2 (11721975_s_at): 24.54 RFU
